This passage reports ciliation results from patent publication US20230218577A1, “USE OF HEAT SHOCK PROTEIN INHIBITORS FOR THE TREATMENT OF NEURODEVELOPMENTAL DISORDERS” (The Children's Medical Center Corporation, priority 2020, published 2023).

The experiment deals with cilia (ACIII) in ctrl-sh hippocampal neurons. In words: cilia^HCA in ctrl-sh neurons. Format: cell-based, rat. The conditions noted are these: four-day dose curve between DIV9-13. The source says:
To investigate how mTORC1 dysregulation due to neuronal TSC loss affected ciliation, High Content image-based Assays (HCAs) were developed for unbiased quantification of cilia and mTORC1 activity (hereafter cilia^HCA and mTORC1^HCA) in primary neurons. As an in vitro model of TSC, rat hippocampal neurons transduced with lentiviral vectors (LV) expressing a short hairpin RNA (shRNA) were used directed against either the Tsc2 (Tsc2-sh) or the luciferase gene as a control (ctrl-sh) tagged with GFP. […] Both the cilia^HCA and mTORC1^HCA were optimized as imaged-based assays, where cilia and mTORC1 activity was monitored by immunofluorescent staining of ACIII to identify cilia and pS6 as a proxy of mTORC1 activation (FIGS. 8C-F). Neurons were transduced in culture at day in vitro (DIV) 1, and cilia and mTORC1 activity were assessed in a time course experiment at DIV2, 5, 7, 13, and 20 (FIG. 2A). […] Reduced ciliation was validated by manual imaging and quantification of LV-infected neurons co-labeled with ACIII/centrin (FIGS. 8G-H). No changes in size or ACIII intensity were detected in the remaining cilia of the Tsc2-sh neurons (FIGS. 8I-J). […]

As for `C=CCNC1=C2C[C@@H](C)C[C@H](OC)[C@H](O)[C@@H](C)/C=C(\C)[C@H](OC(N)=O)[C@@H](OC)C=C/C=C(\C)C(=O)NC(=CC1=O)C2=O` [17-AGG, 3 S,5S,6R,7S,8E,10R,11S,12E,14E)-21-(allylamino)-6-hydroxy-5,11-dimethoxy-3,7,9,15-tetramethyl-16,20,22-trioxo-17-azabicyclo[16.3.1]docosa-8,12,14,18,21-pentaen-10-yl] carbamate], the ciliation result is “did not increase”.
